Measurements reported in patent US10745405B2, “Glucuronide prodrugs of Janus kinase inhibitors” (THERAVANCE BIOPHARMA R&D IP, LLC, priority 2017, dated 2020).

Experiments:
[1] = tested on: β-glucuronidase in rat colon feces; assay: Rat colon fecal homogenate stability assay; type: in vitro ADME; details: male, Sprague Dawley, rat colon fecal supernatant-homogenate; in vitro half-life of the prodrug in rat fecal supernatant-homogenate, anaerobic, 10 μM substrate; read-out: T½
Excerpt: The compounds of the present invention contain a glucuronide prodrug moiety that is expected to be cleaved by β-glucuronidase enzyme to release a JAK inhibitor (e.g., ruxolitinib, baricitinib or oclacitinib). The objective of this assay was to determine the half-life for compounds of the present invention in the presence of β-glucuronidase in rat colon feces. Following sacrifice of a naïve male Sprague Dawley rat (˜300 g) by cardiac puncture exsanguination, the colon was ligated and removed to an anaerobic chamber (AS-580, Anaerobe Systems). The fecal content was removed within the chamber and was diluted 1:10 with phosphate buffer (1 gram fecal content to 9 mL phosphate buffer) and the resulting mixture was homogenized using a handheld Omni Tissue Master. The fecal homogenate was centrifuged at 2000 g for 10 min to remove bulk material and the supernatant was removed and used for the incubations. DMSO stock solutions (10 mM) of the test compounds and sulfasalazine (control) were prepared. Sulfasalazine was used as a positive control to confirm viability of the fecal supernatant-homogenate (see, e.g., Azad Khan et al., Clinical Science (1983) 64, 349-354). If the in vitro half-life (T½) for sulfasalazine in the fecal sample was less than 30 min, the fecal sample was deemed to be viable and in true anaerobic conditions. However, if the T½ for sulfasalazine was greater than 30 min, the fecal sample was typically contaminated with oxygen and was not viable. The final substrate concentration of each assay was 10 μM. Reactions were started by adding a 5 μL aliquot of diluted test compound stock solution into 300 μL of rat fecal supernatant-homogenate. At 0, 15, 50, 85 and 120 min post reaction initiation, a 50 μL aliquot was removed and added to a mixture of 200 μL of acetonitrile with 3% formic acid and an internal standard. All samples were centrifuged at 2000 g for 10 min after which 50 μL of supernatant was diluted into 150 μL of water for analysis on an LC-MS system. In vitro half-lives (T½) for the test compounds were calculated as follows: T½=0.693/elimination rate constant.

[2] = Oral pharmacokinetics in mouse assay; type: in vivo; details: liberated JAK inhibitor in colon tissue, AUC0-6 h, single PO dose 5 mg/kg of prodrug, male Balb/c mice
Protocol: When cleaved by β-glucuronidase enzyme, the compounds of the present invention release a JAK inhibitor (e.g., ruxolitinib, baricitinib or oclacitinib). The object of this assay was to determine JAK inhibitor exposure (AUC0-6 h) in colon tissue and plasma following oral dosing of compounds of the present invention in mice. Male Balb/c mice (n=2/time point) received a single PO oral gavage dose (5 mg/kg in 1:20 mixture of 5% DMSO and 1% HPMC) of the test compound. At 0.5, 2, 6 and 24 h post-dosing, mice were sacrificed via cardiac puncture exsanguination and blood samples were taken and placed into sample tubes (Microtainer, Becton, Dickinson and Company) containing sodium fluoride and then placed on ice. Plasma was obtained by centrifugation (Eppendorf centrifuge, 5804R) for 4 min at approximately 12,000 rpm at 4° C. The colons were removed from the exsanguinated mice and the colon fecal contents were gently removed. The colons were flushed with saline and patted dry. The colons were then homogenized in 3× volume of sterile water using a tissue homogenizer (Precellys homogenizer, Bertin Instruments) at approximately 4° C. All samples were stored at −80° C. for later bioanalysis. The concentration of JAK inhibitor (e.g., ruxolitinib, baricitinib or oclacitinib) in each sample was determined as follows: the plasma and colon homogenate samples were vortexed, combined with a 50 μL aliquot of rat plasma, extracted with 200 μL of ACN containing an internal standard and quantified against the internal standard by LC-MS. An area-under-the-concentration curve (AUC0-6 h) was calculated for plasma and colon test compound and liberated JAK inhibitor. A key parameter to assess suitability for localized delivery of the JAK inhibitor to the colon was the JAK inhibitor colon to plasma AUC ratio.

half-life at 10 μM [1]	Colon AUC [2]	SMILES
< 5 min	7.4 µg·h/g	CN(CCN(C)C(=O)n1ccc2c(-c3cnn([C@H](CC#N)C4CCCC4)c3)ncnc21)C(=O)OCc1ccc(O[C@@H]2O[C@H](C(=O)O)[C@@H](O)[C@H](O)[C@H]2O)c([N+](=O)[O-])c1 [Compound VII-1, (2S,3S,4S,5R,6S)-6-(4-((((2-(4-(1-((R)-2-Cyano-1-cyclopentylethyl)-1H-pyrazol-4-yl)-N-methyl-7H-pyrrolo[2,3-d]pyrimidine-7-carboxamido)ethyl)-(methyl)carbamoyl)oxy)methyl)-2-nitrophenoxy)-3,4,5-trihydroxytetrahydro-2H-pyran-2-carboxylic Acid]
< 5 min	17.3 µg·h/g	CCS(=O)(=O)N1CC(CC#N)(n2cc(-c3ncnc4c3ccn4C(=O)N(C)CCN(C)C(=O)OCc3ccc(O[C@@H]4O[C@H](C(=O)O)[C@@H](O)[C@H](O)[C@H]4O)c([N+](=O)[O-])c3)cn2)C1 [Compound VII-2, (2S,3S,4S,5R,6S)-6-(4-((((2-(4-(1-(3-(Cyanomethyl)-1-(ethylsulfonyl)azetidin-3-yl)-1H-pyrazol-4-yl)-N-methyl-7H-pyrrolo[2,3-d]pyrimidine-7-carboxamido)ethyl)-(methyl)carbamoyl)oxy)methyl)-2-nitrophenoxy)-3,4,5-trihydroxytetrahydro-2H-pyran-2-carboxylic Acid]
< 5 min	13.5 µg·h/g	CNS(=O)(=O)C[C@H]1CC[C@H](N(C)c2ncnc3c2ccn3C(=O)N(C)CCN(C)C(=O)OCc2ccc(O[C@@H]3O[C@H](C(=O)O)[C@@H](O)[C@H](O)[C@H]3O)c([N+](=O)[O-])c2)CC1 [Compound VII-3, (2S,3S,4S,5R,6S)-3,4,5-Trihydroxy-6-(4-(((methyl(2-(N-methyl-4-(methyl((1r,4r)-4-((N-methylsulfamoyl)methyl)cyclohexyl)amino)-7H-pyrrolo[2,3-d]pyrimidine-7-carboxamido)ethyl)carbamoyl)oxy)methyl)-2-nitrophenoxy)tetrahydro-2H-pyran-2-carboxylic Acid]
